# Experimental data as given in patent US20250171438A1 (Agios Pharmaceuticals, Inc., priority 2022, published 2025).
# Target: T1, human PAH with the R408W mutation (Homo sapiens, UniProt P00439, R408W)
# T1 construct: expressed in transfected cells
# T1 sequence (P00439 1-452 R408W): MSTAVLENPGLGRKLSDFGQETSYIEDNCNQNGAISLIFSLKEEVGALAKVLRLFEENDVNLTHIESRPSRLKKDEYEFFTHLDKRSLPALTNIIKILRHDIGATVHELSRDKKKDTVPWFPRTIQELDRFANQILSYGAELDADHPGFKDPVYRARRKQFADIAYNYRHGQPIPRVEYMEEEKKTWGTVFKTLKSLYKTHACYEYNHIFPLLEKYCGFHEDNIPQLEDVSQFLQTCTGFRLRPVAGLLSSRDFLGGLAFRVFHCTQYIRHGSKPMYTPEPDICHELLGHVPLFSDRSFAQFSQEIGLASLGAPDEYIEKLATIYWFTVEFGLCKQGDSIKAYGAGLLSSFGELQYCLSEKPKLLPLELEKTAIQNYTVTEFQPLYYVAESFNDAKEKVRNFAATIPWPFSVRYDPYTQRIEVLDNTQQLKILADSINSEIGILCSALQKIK
# Assay: Cell Based Phenylalanine Flux Assay
# Settings: A375 cells expressing human R408W PAH; 24 hrs compound incubation; 13C-Tyrosine by LC-MS; average where tested multiple times; read-out: AC50
row,AC50 [nM],SMILES
1,< 500,"CC(C)(O)c1nc(CF)c(C(=O)N2CCc3[nH]cnc3[C@H]2c2nc3c(F)cccc3s2)o1 [Example 2065, (S)-(4-(4-fluorobenzo[d]thiazol-2-yl)-6,7-dihydro-1H-imidazo[4,5-c]pyridin-5(4H)-yl)(4-(fluoromethyl)-2-(2-hydroxypropan-2-yl)oxazol-5-yl)methanone]"
2,1000 to 5000,"CC(C)(O)c1nc(CF)c(C(=O)N2CCc3[nH]cnc3[C@@H]2c2nc3c(F)cccc3s2)o1 [Example 2066, (R)-(4-(4-fluorobenzo[d]thiazol-2-yl)-6,7-dihydro-1H-imidazo[4,5-c]pyridin-5(4H)-yl)(4-(fluoromethyl)-2-(2-hydroxypropan-2-yl)oxazol-5-yl)methanone]"
3,500 to 1000,"CC(F)c1nc(C(F)F)c(C(=O)N2CCc3[nH]cnc3[C@@H]2c2nc3c(F)cccc3s2)o1 (stereo partly drawn) [Example 2076, (4-(difluoromethyl)-2-(1-fluoroethyl)oxazol-5-yl)((R)-4-(4-fluorobenzo[d]thiazol-2-yl)-6,7-dihydro-1H-imidazo[4,5-c]pyridin-5(4H)-yl)methanone]"
4,1000 to 5000,"O=C(c1nncn1C1CC1)N1CCc2[nH]cnc2[C@@H]1c1nc2c(F)cccc2s1 [Example 2083, (R)-(4-cyclopropyl-4H-1,2,4-triazol-3-yl)(4-(4-fluorobenzo[d]thiazol-2-yl)-6,7-dihydro-1H-imidazo[4,5-c]pyridin-5(4H)-yl)methanone]"
5,500 to 1000,O=C(c1nncn1C1CC1)N1CCc2[nH]cnc2[C@H]1c1nc2c(F)cccc2s1 [Example 2084]
6,< 500,"CC(C)(O)c1nc(C(F)F)c(C(=O)N2CCc3[nH]cnc3[C@H]2c2nc3c(F)cccc3s2)s1 [Example 2085, (S)-(4-(difluoromethyl)-2-(2-hydroxypropan-2-yl)thiazol-5-yl)(4-(4-fluorobenzo[d]thiazol-2-yl)-6,7-dihydro-1H-imidazo[4,5-c]pyridin-5(4H)-yl)methanone]"
7,500 to 1000,"CC(C)(O)c1nc(C(F)F)c(C(=O)N2CCc3[nH]cnc3[C@@H]2c2nc3c(F)cccc3s2)s1 [Example 2086, (R)-(4-(difluoromethyl)-2-(2-hydroxypropan-2-yl)thiazol-5-yl)(4-(4-fluorobenzo[d]thiazol-2-yl)-6,7-dihydro-1H-imidazo[4,5-c]pyridin-5(4H)-yl)methanone]"
8,< 500,O=C(c1ccnn1C(F)(F)F)N1CCc2[nH]cnc2[C@H]1c1nc2ccccc2s1 [Example 2097]
9,500 to 1000,"O=C(c1ccnn1C(F)(F)F)N1CCc2[nH]cnc2[C@@H]1c1nc2ccccc2s1 [Example 2098, (R)-(4-(benzo[d]thiazol-2-yl)-6,7-dihydro-1H-imidazo[4,5-c]pyridin-5(4H)-yl)(1-(trifluoromethyl)-1H-pyrazol-5-yl)methanone]"
10,< 500,"O=C(c1ccnn1C(F)(F)F)N1CCc2[nH]cnc2[C@H]1c1nc2c(F)cccc2s1 [Example 2099, (S)-(4-(4-fluorobenzo[d]thiazol-2-yl)-6,7-dihydro-1H-imidazo[4,5-c]pyridin-5(4H)-yl)(1-(trifluoromethyl)-1H-pyrazol-5-yl)methanone]"
11,1000 to 5000,"O=C(c1ccnn1C(F)(F)F)N1CCc2[nH]cnc2[C@@H]1c1nc2c(F)cccc2s1 [Example 2100, (R)-(4-(4-fluorobenzo[d]thiazol-2-yl)-6,7-dihydro-1H-imidazo[4,5-c]pyridin-5(4H)-yl)(1-(trifluoromethyl)-1H-pyrazol-5-yl)methanone]"
12,500 to 1000,"Cn1ncnc1C(=O)N1CCc2[nH]cnc2[C@H]1c1nc2c(C(F)(F)F)cccc2s1 [Example 2101, (S)-(1-methyl-1H-1,2,4-triazol-5-yl)(4-(4-(trifluoromethyl)benzo[d]thiazol-2-yl)-6,7-dihydro-1H-imidazo[4,5-c]pyridin-5(4H)-yl)methanone]"

# Continued, compound first:
row,SMILES,AC50 [nM]
1,"CC[C@H](O)c1nc(C(F)F)c(C(=O)N2CCc3[nH]cnc3[C@@H]2c2nc3c(F)cccc3s2)o1 [Example 2064, (4-(difluoromethyl)-2-((S)-1-hydroxypropyl)oxazol-5-yl)((R)-4-(4-fluorobenzo[d]thiazol-2-yl)-6,7-dihydro-1H-imidazo[4,5-c]pyridin-5(4H)-yl)methanone]",1000 to 5000
2,CC[C@@H](O)c1nc(C(F)F)c(C(=O)N2CCc3[nH]cnc3[C@H]2c2nc3c(F)cccc3s2)o1 [Example 2067],< 500
3,"CC[C@@H](O)c1nc(C(F)F)c(C(=O)N2CCc3[nH]cnc3[C@@H]2c2nc3c(F)cccc3s2)o1 [Example 2068, (4-(difluoromethyl)-2-((R)-1-hydroxypropyl)oxazol-5-yl)((R)-4-(4-fluorobenzo[d]thiazol-2-yl)-6,7-dihydro-1H-imidazo[4,5-c]pyridin-5(4H)-yl)methanone]",500 to 1000
4,"CNC(C)(C)c1nc(C(F)F)c(C(=O)N2CCc3[nH]cnc3[C@H]2c2nc3c(F)cccc3s2)o1 [Example 2069, (S)-(4-(difluoromethyl)-2-(2-(methylamino)propan-2-yl)oxazol-5-yl)(4-(4-fluorobenzo[d]thiazol-2-yl)-6,7-dihydro-1H-imidazo[4,5-c]pyridin-5(4H)-yl)methanone]",< 500
5,"CNC(C)(C)c1nc(C(F)F)c(C(=O)N2CCc3[nH]cnc3[C@@H]2c2nc3c(F)cccc3s2)o1 [Example 2070, (R)-(4-(difluoromethyl)-2-(2-(methylamino)propan-2-yl)oxazol-5-yl)(4-(4-fluorobenzo[d]thiazol-2-yl)-6,7-dihydro-1H-imidazo[4,5-c]pyridin-5(4H)-yl)methanone]",< 500
6,CC(C)(CO)c1nc(C(F)F)c(C(=O)N2CCc3[nH]cnc3[C@H]2c2nc3c(F)cccc3s2)o1 [Example 2071],< 500
7,"CC(C)(CO)c1nc(C(F)F)c(C(=O)N2CCc3[nH]cnc3[C@@H]2c2nc3c(F)cccc3s2)o1 [Example 2072, (R)-(4-(difluoromethyl)-2-(1-hydroxy-2-methylpropan-2-yl)oxazol-5-yl)(4-(4-fluorobenzo[d]thiazol-2-yl)-6,7-dihydro-1H-imidazo[4,5-c]pyridin-5(4H)-yl)methanone]",500 to 1000
8,"CCn1cnnc1C(=O)N1CCc2[nH]cnc2[C@@H]1c1nc2ccccc2s1 [Example 2077, (R)-(4-(benzo[d]thiazol-2-yl)-6,7-dihydro-1H-imidazo[4,5-c]pyridin-5(4H)-yl)(4-ethyl-4H-1,2,4-triazol-3-yl)methanone]",> 5000
9,CCn1cnnc1C(=O)N1CCc2[nH]cnc2[C@H]1c1nc2ccccc2s1 [Example 2078],< 500
10,"CC(C)(O)c1nc(Cl)c(C(=O)N2CCc3[nH]cnc3[C@H]2c2nc3c(F)cccc3s2)s1 [Example 2087, (S)-(4-chloro-2-(2-hydroxypropan-2-yl)thiazol-5-yl)(4-(4-fluorobenzo[d]thiazol-2-yl)-6,7-dihydro-1H-imidazo[4,5-c]pyridin-5(4H)-yl)methanone]",1000 to 5000
11,"CC(C)(O)c1nc(Cl)c(C(=O)N2CCc3[nH]cnc3[C@@H]2c2nc3c(F)cccc3s2)s1 [Example 2088, (R)-(4-chloro-2-(2-hydroxypropan-2-yl)thiazol-5-yl)(4-(4-fluorobenzo[d]thiazol-2-yl)-6,7-dihydro-1H-imidazo[4,5-c]pyridin-5(4H)-yl)methanone]",1000 to 5000
12,CC(C)(O)c1nc(Br)c(C(=O)N2CCc3[nH]cnc3[C@H]2c2nc3ccccc3s2)o1 [Example 2089],< 500
13,"CC(C)(O)c1nc(Br)c(C(=O)N2CCc3[nH]cnc3[C@@H]2c2nc3ccccc3s2)o1 [Example 2090, (R)-(4-(benzo[d]thiazol-2-yl)-6,7-dihydro-1H-imidazo[4,5-c]pyridin-5(4H)-yl)(4-bromo-2-(2-hydroxypropan-2-yl)oxazol-5-yl)methanone]",1000 to 5000
14,C[C@@H](O)c1nc(C(F)F)c(C(=O)N2CCc3[nH]cnc3[C@H]2c2nc3ccccc3s2)o1 [Example 2091],< 500
15,"C[C@@H](O)c1nc(C(F)F)c(C(=O)N2CCc3[nH]cnc3[C@@H]2c2nc3ccccc3s2)o1 [Example 2092, ((R)-4-(benzo[d]thiazol-2-yl)-6,7-dihydro-1H-imidazo[4,5-c]pyridin-5(4H)-yl)(4-(difluoromethyl)-2-((R)-1-hydroxyethyl)oxazol-5-yl)methanone]",500 to 1000
16,"CC(C)(O)c1nc(Br)c(C(=O)N2CCc3[nH]cnc3[C@H]2c2nc3c(F)cccc3s2)s1 [Example 2093, (S)-(4-bromo-2-(2-hydroxypropan-2-yl)thiazol-5-yl)(4-(4-fluorobenzo[d]thiazol-2-yl)-6,7-dihydro-1H-imidazo[4,5-c]pyridin-5(4H)-yl)methanone]",< 500
17,"CC(C)(O)c1nc(Br)c(C(=O)N2CCc3[nH]cnc3[C@@H]2c2nc3c(F)cccc3s2)s1 [Example 2094, (R)-(4-bromo-2-(2-hydroxypropan-2-yl)thiazol-5-yl)(4-(4-fluorobenzo[d]thiazol-2-yl)-6,7-dihydro-1H-imidazo[4,5-c]pyridin-5(4H)-yl)methanone]",1000 to 5000
18,C[C@H](O)c1nc(C(F)F)c(C(=O)N2CCc3[nH]cnc3[C@H]2c2nc3ccccc3s2)o1 [Example 2095],< 500
19,"C[C@H](O)c1nc(C(F)F)c(C(=O)N2CCc3[nH]cnc3[C@@H]2c2nc3ccccc3s2)o1 [Example 2096, ((R)-4-(benzo[d]thiazol-2-yl)-6,7-dihydro-1H-imidazo[4,5-c]pyridin-5(4H)-yl)(4-(difluoromethyl)-2-((S)-1-hydroxyethyl)oxazol-5-yl)methanone]",1000 to 5000
